Where two headings read alike, the source gives them in different places.
Assays:
GBM0308 CSCs = test: Dose-response killing of GBM CSCs (PI/Hoechst, Celigo cytometer); type: cell-based
Description: (§1) The inventors first evaluated a cohort of seven rocaglate translation inhibitors (1, 3-7, and 9, FIG. 1A and Table 1, compounds 2 and 8 were not tested due to unavailability). To assay for compounds that selectively affect GBM CSCs, the inventors employed the patient-derived tumor-initiating cell (TIC) cell line […] that forms neurospheres (consisting exclusively of tumor-initiating cells or CSCs) when cultured in neurobasal (NBE) medium. Upon exposure to serum and growth factor withdrawal, however, the cell line differentiates, acquires a flattened morphology, and forms a non-CSC population.^20 Thus, compounds can be tested in parallel to assess their effect on GBM CSCs vs. GBM non-CSCs as separate populations with a clean and robust response. This approach has been previously used to perform RNAi-based genetic screens to identify modulators of CSCs.^20 In this study, GBM0308 cells, cultured in stem cell conditions to form CSCs or in medium containing serum to induce differentiation into a non-CSC population, were treated in parallel with compounds at varying doses. Three days post-treatment, propidium iodide (PI) and Hoechst staining were performed and quantified using a Celigo image cytometer. Hoechst dye stained all […] nucleated cells, while PI exclusively stained dead cells. Cell viability and the percentage of cell death were then determined.
(§2) Cell Culture: Glioblastoma stem cell lines GBM0308, BT145, and BT112 were cultured in neurobasal (NBE medium) containing N-2 and B-27 supplements, EGF, bFGF, L-glutamine, and Penicillin-Streptomycin), as described previously.^19 Adherent GBM cells were cultured in serum-containing DMEM media (Invitrogen) supplemented with 10% fetal bovine serum (Corning Cellgro™). Cells were incubated at 37° C. and 5% CO2 to allow neurosphere formation. For seeding and subculturing, the neurospheres were gently trypsinized with 0.025% trypsin to form a single-cell suspension.
(§3) Dose-Response Testing in GBM Cells: Briefly, on day 1, cells were seeded in triplicate. For CSCs, 1500 cells/well were plated in a low attachment 96-well plate with NBE media and incubated for 3 days at 37° C. and 5% CO2 to allow the formation of neurospheres. For non-CSCs, 3000 cells/well were plated in a 96-well plate with DMEM media supplemented with 10% FBS. Similarly, the assay plates were also incubated for the same duration. Compound treatments started on day 4. Each compound was resuspended in DMSO and then diluted to different concentrations in media to a final concentration of DMSO less than 1%. The compounds were added at concentrations of 10, 3.3, 1.11, 0.37, 0.12, 0.041, 0.013, and 0.004 µM, respectively. DMSO-treated cells served as a control. After 72 h incubation with the compounds, fluorescent stains, propidium iodide, and Hoechst 33342 (Life Technologies, Carlsbad, CA), were used to stain the GBM cells to determine cell viability. A staining solution in 1×PBS was prepared by mixing PI and Hoechst 33342 to working concentrations of 2.5 μM and 20 μM, respectively. 20 μL of this staining solution was added per well, and plates were incubated at 37° C. and 5% CO2 for 60 min. After incubation, plates were read by Celigo imaging cytometer using an inbuilt Celigo application; Cell Viability (Dead+Total). For the viability measurement, the total number of neurospheres/cells and dead neurospheres/cells in each well were counted by the cytometer. The percentage of PI+ cells was normalized to DMSO and plotted against the drug concentration to calculate the EC50 with a four-parameter, variable-slope dose-response curve with an upper constraint of <100% dead cells and a lower constraint of =0% dead cells (GraphPad Prism v.10.0.0). For all dose response experiments, the experimental maximal efficacy (maximum observed % cell death) is reported. Relative EC50 values are reported for all compounds killing >50% of cells.

GBM0308 non-CSCs = test: Dose-response killing of GBM non-CSCs (PI/Hoechst, Celigo cytometer); type: cell-based; conditions: for Emax / Non-CSCs Max. observed efficacy (% dead cells): 72 h
Description: as §1, §2, §3

[1] = Homo sapiens, 72 h, read-out: CSCs EC50 (μM), Table 2, GBM0308 CSCs, 72 h treatment, relative EC50
[2] = Homo sapiens, 72 h, read-out: CSCs Max. observed efficacy (% dead cells), Table 2, GBM0308 CSCs, 72 h, highest tested concentration 10 μM
[3] = read-out: CSCs EC50, Table 2, GBM0308 CSCs, 72 h treatment, relative EC50
[4] = Homo sapiens, read-out: Non-CSCs Max. observed efficacy (% dead cells), Table 2, GBM0308 non-CSCs, highest tested concentration 10 μM
[5] = Homo sapiens, 72 h, Table 7, cell line not given, read-out: CSC Max. observed efficacy (% dead cells)
[6] = Homo sapiens, Table 7, cell line not given, read-out: CSC EC50
[7] = Homo sapiens, Table 7, cell line not given, read-out: Non-CSC Max. observed efficacy (% dead cells)
[8] = Homo sapiens, 72 h, read-out: CSC Max. observed efficacy (% dead cells), Table 7, cell line not given
[9] = Homo sapiens, read-out: CSC EC50 (μM), Table 7, cell line not given
[10] = Homo sapiens, read-out: Non-CSC Max. observed efficacy (% dead cells), Table 7, cell line not given
[11] = Table 1, GBM0308 CSCs, 72 h, up to 10 μM
[12] = Table 1, GBM0308 non-CSCs, up to 10 μM
[13] = Table 2, GBM0308 CSCs, 72 h, highest tested concentration 10 μM
[14] = Table 2, GBM0308 non-CSCs, highest tested concentration 10 μM
[15] = Table 2, GBM0308 CSCs, 72 h treatment, relative EC50, read-out: CSCs EC50

COc1ccc([C@@]23Oc4cc(OC)cc(OC)c4[C@]2(O)[C@H](O)[C@H](C(=O)NS(=O)(=O)N(C)C)[C@H]3c2ccccc2)cc1 [(−)-16, (1R,2R,3S,3aR,8bS)—N—(N,N-dimethylsulfamoyl)-1,8b-dihydroxy-6,8-dimethoxy-3a-(4-methoxyphenyl)-3-phenyl-2,3,3a,8b-tetrahydro-1H-cyclopenta[b]benzofuran-2-carboxamide]
EC50 (GBM0308 CSCs; [1]): 1 to 10 µM
Emax (GBM0308 CSCs; [2]): 76%
EC50 (GBM0308 CSCs; [3]): 1.73 µM
Emax (GBM0308 non-CSCs; [4]): 23%

C#CCNS(=O)(=O)NC(=O)[C@H]1[C@@H](O)[C@@]2(O)c3c(OC)cc(OC)cc3O[C@@]2(c2ccc(Br)cc2)[C@@H]1c1ccccc1 [(−)-21, (1R,2R,3S,3aR,8bS)-3a-(4-bromophenyl)-1,8b-dihydroxy-6,8-dimethoxy-3-phenyl-N—(N-(prop-2-yn-1-yl)sulfamoyl)-2,3,3a,8b-tetrahydro-1H-cyclopenta[b]benzofuran-2-carboxamide]
EC50 (GBM0308 CSCs; [1]): 0.016 µM
Emax (GBM0308 CSCs; [2]): 92%
Emax (GBM0308 non-CSCs; [4]): 27%

COc1cc(OC)c2c(c1)O[C@@]1(c3ccc(Br)cc3)[C@H](c3ccccc3)[C@@H](C(=O)NS(=O)(=O)N(C)C)[C@@H](O)[C@@]21O [BUCMD790 (—), (1R,2R,3S,3aR,8bS)-3a-(4-bromophenyl)-N-(N,N-dimethylsulfamoyl)-1,8b-dihydroxy-6,8-dimethoxy-3-phenyl-2,3,3a,8b-tetrahydro-1H-cyclopenta[b]benzofuran-2-carboxamide]
Emax (GBM0308 CSCs; [5]): 93%
EC50 (GBM0308 CSCs; [6]): 0.045 µM
Emax (GBM0308 non-CSCs; [7]): 26%

COc1cc(OC)c2c(c1)O[C@@]1(c3ccc(Br)cc3)[C@H](c3ccccc3)[C@@H](C(=O)NS(=O)(=O)N3CCCC3)[C@@H](O)[C@@]21O [ZW-12-37, (1R,2R,3S,3aR,8bS)-3a-(4-bromophenyl)-1,8b-dihydroxy-6,8-dimethoxy-3-phenyl-N-(pyrrolidin-1-ylsulfonyl)-2,3,3a,8b-tetrahydro-1H-cyclopenta[b]benzofuran-2-carboxamide]
Emax (GBM0308 CSCs; [8]): 95%
EC50 (GBM0308 CSCs; [9]): 0.7 µM
Emax (GBM0308 non-CSCs; [10]): 25%
EC50 (GBM0308 non-CSCs; Homo sapiens, read-out: Non-CSC EC50 (μM)): 0.401 µM

COc1ccc([C@@]23Oc4cc(OC)cc(OC)c4[C@]2(O)[C@H](O)[C@H](C(=O)NS(C)(=O)=O)[C@H]3c2ccccc2)cc1 [(−)-15, (1R,2R,3S,3aR,8bS)-1,8b-dihydroxy-6,8-dimethoxy-3a-(4-methoxyphenyl)-N-(methylsulfonyl)-3-phenyl-2,3,3a,8b-tetrahydro-1H-cyclopenta[b]benzofuran-2-carboxamide]
EC50 (GBM0308 CSCs; [1]): 1 to 10 µM
Emax (GBM0308 CSCs; [2]): 85%
EC50 (GBM0308 CSCs; [3]): 0.98 µM
Emax (GBM0308 non-CSCs; [4]): 19%

aglaroxin C [rac-4, reference compound]
CSCs Max. observed efficacy (% dead cells) (GBM0308 CSCs; [11]): 42%
CSCs Max. observed efficacy (% dead cells) (GBM0308 CSCs; Table 1, GBM0308 CSCs, 72 h, up to 10 μM, listed as 4): ≤ 50%
Non-CSCs Max. observed efficacy (% dead cells) (GBM0308 non-CSCs; [12]): 26%

CCN(CC)S(=O)(=O)NC(=O)[C@H]1[C@@H](O)[C@@]2(O)c3c(OC)cc(OC)cc3O[C@@]2(c2ccc(Br)cc2)[C@@H]1c1ccccc1 [ZW-12-35, (1R,2R,3S,3aR,8bS)-3a-(4-bromophenyl)-N—(N,N-diethylsulfamoyl)-1,8b-dihydroxy-6,8-dimethoxy-3-phenyl-2,3,3a,8b-tetrahydro-1H-cyclopenta[b]benzofuran-2-carboxamide]
Emax (GBM0308 CSCs; [8]): 92%
EC50 (GBM0308 CSCs; [9]): 1.18 µM
Emax (GBM0308 non-CSCs; [10]): 16%

COc1ccc([C@@]23Oc4cc(OC)cc(OC)c4[C@]2(O)[C@H](O)[C@H](C(=O)O)[C@H]3c2ccccc2)cc1 [(−)-10, rocaglaic acid]
CSCs Max. observed efficacy (% dead cells) (GBM0308 CSCs; [13]): 68%
Non-CSCs Max. observed efficacy (% dead cells) (GBM0308 non-CSCs; [14]): 27%

COc1ccc([C@@]23Oc4cc(OC)cc(OC)c4[C@]2(O)[C@H](O)[C@H](C(=O)O)[C@H]3c2ccccc2)cc1 [(+)-10, rocaglaic acid]
cytotoxic activity against CSCs, in words (GBM0308 CSCs; GBM0308 CSCs): limited activity
CSCs Max. observed efficacy (% dead cells) (GBM0308 CSCs; [13]): 58%
EC50 (GBM0308 CSCs; [15]): 7.08 µM
cytotoxic activity against non-CSCs, in words (GBM0308 non-CSCs; GBM0308 non-CSCs): limited activity
Non-CSCs Max. observed efficacy (% dead cells) (GBM0308 non-CSCs; [14]): 30%

COc1cc(OC)c2c(c1)O[C@@]1(c3ccc(Br)cc3)[C@H](c3ccccc3)[C@@H](C(=O)NS(=O)(=O)N(C)C)[C@@H](O)[C@@]21O (racemic) [BUCMD747 (rac), (1R,2R,3S,3aR,8bS)-3a-(4-bromophenyl)-N-(N,N-dimethylsulfamoyl)-1,8b-dihydroxy-6,8-dimethoxy-3-phenyl-2,3,3a,8b-tetrahydro-1H-cyclopenta[b]benzofuran-2-carboxamide]
Emax (GBM0308 CSCs; [5]): 89%
EC50 (GBM0308 CSCs; [6]): 0.453 µM
Emax (GBM0308 non-CSCs; [7]): 27%

COc1cc(OC)c2c(c1)O[C@@]1(c3ccc(Cl)cc3)[C@H](c3ccccc3)[C@@H](C(=O)NS(=O)(=O)N(C)C)[C@@H](O)[C@@]21O [ZW-12-31, (1R,2R,3S,3aR,8bS)-3a-(4-chlorophenyl)-N—(N,N-dimethylsulfamoyl)-1,8b-dihydroxy-6,8-dimethoxy-3-phenyl-2,3,3a,8b-tetrahydro-1H-cyclopenta[b]benzofuran-2-carboxamide]
Emax (GBM0308 CSCs; [8]): 72%
EC50 (GBM0308 CSCs; [9]): 0.693 µM
Emax (GBM0308 non-CSCs; [10]): 25%

COc1cc(OC)c2c(c1)O[C@@]1(c3ccc(Br)cc3)[C@H](c3ccccc3)[C@@H](C(=O)O)[C@@H](O)[C@@]21O [(−)-11]
CSCs Max. observed efficacy (% dead cells) (GBM0308 CSCs; [13]): 92%
EC50 (GBM0308 CSCs; [15]): 0.121 µM
Non-CSCs Max. observed efficacy (% dead cells) (GBM0308 non-CSCs; [14]): 25%

COc1ccc([C@@]23Oc4cc(OC)cc(OC)c4[C@]2(O)[C@H](O)[C@H](C(=O)N(C)OC)[C@H]3c2ccccc2)cc1 (racemic) [rac-6, rohinitib, reference compound]
CSCs Max. observed efficacy (% dead cells) (GBM0308 CSCs; [11]): 81%
EC50 (GBM0308 CSCs; Table 1, GBM0308 CSCs, 72 h treatment, relative EC50, given for compounds causing at least 50% cell death, read-out: CSCs EC50): 0.922 µM
Non-CSCs Max. observed efficacy (% dead cells) (GBM0308 non-CSCs; [12]): 25%

COc1cc(OC)c2c(c1)O[C@@]1(c3ccc(C#N)cc3)[C@H](c3ccccc3)[C@@H](C(=O)NS(=O)(=O)N(C)C)[C@@H](O)[C@@]21O [ZW-12-30, (1R,2R,3S,3aR,8bS)-3a-(4-cyanophenyl)-N—(N,N-dimethylsulfamoyl)-1,8b-dihydroxy-6,8-dimethoxy-3-phenyl-2,3,3a,8b-tetrahydro-1H-cyclopenta[b]benzofuran-2-carboxamide]
Emax (GBM0308 CSCs; [8]): 94%
EC50 (GBM0308 CSCs; [9]): 0.632 µM
Emax (GBM0308 non-CSCs; [10]): 21%

COc1cc(OC)c2c(c1)O[C@@]1(c3ccc(Br)cc3)[C@H](c3ccccc3)[C@@H](C(=O)NS(=O)(=O)N3CC(C)C3)[C@@H](O)[C@@]21O [ZW-12-36, (1R,2R,3S,3aR,8bS)-3a-(4-bromophenyl)-1,8b-dihydroxy-6,8-dimethoxy-N-((3-methylazetidin-1-yl)sulfonyl)-3-phenyl-2,3,3a,8b-tetrahydro-1H-cyclopenta[b]benzofuran-2-carboxamide]
Emax (GBM0308 CSCs; [8]): 96%
EC50 (GBM0308 CSCs; [9]): 0.804 µM
Emax (GBM0308 non-CSCs; [10]): 11%

Reference: patent US12612395B2, “Rocaglate derivatives and uses thereof” (TRUSTEES OF BOSTON UNIVERSITY, priority 2023, dated 2026)
